These are literature values, as cited in patent US20030109678A1, “Methods and means for regulation of gene expression” (priority 2000, published 2003).

The data set has as its target mutated form of the human estrogen receptor (ER), G521R mutation (Homo sapiens, UniProt P03372, G521R).

mutated form of the human estrogen receptor (ER), G521R mutation, sequence (P03372 whole entry G521R): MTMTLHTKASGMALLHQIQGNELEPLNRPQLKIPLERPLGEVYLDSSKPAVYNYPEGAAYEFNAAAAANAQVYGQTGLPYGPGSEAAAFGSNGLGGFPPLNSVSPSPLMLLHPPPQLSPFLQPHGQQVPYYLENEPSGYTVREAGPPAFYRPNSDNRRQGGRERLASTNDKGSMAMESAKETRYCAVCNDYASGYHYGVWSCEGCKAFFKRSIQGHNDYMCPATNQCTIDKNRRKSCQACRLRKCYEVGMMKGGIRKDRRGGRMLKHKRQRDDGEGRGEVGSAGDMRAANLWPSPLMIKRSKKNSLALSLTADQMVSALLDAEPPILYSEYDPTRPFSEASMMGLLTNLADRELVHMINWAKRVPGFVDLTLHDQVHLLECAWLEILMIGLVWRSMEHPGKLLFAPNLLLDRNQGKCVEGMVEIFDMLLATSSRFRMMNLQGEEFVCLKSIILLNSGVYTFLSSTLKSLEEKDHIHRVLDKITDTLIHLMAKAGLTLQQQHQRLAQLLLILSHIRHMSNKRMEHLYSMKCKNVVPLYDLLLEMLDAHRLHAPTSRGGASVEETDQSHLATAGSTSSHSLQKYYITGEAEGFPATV

Regarding 4-hydroxytamoxifen, the “binding by G521R ER” value was “efficiently binds”.
